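Compound exposure: 48 hours, 5 concentrations, 96-well plates. TGI denotes the concentration required for complete inhibition of growth.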
Experiments:
Experiment in all cases: NCI tumour cell line growth inhibition, 48 h
[1] = test system: 786-0 renal
[2] = test system: A498 renal
[3] = test system: A549 NSCLC
[4] = test system: ACHN renal
[5] = test system: BT-549 breast
[6] = test system: CAKI-1 renal
[7] = test system: CCRF-CEM leukemia
[8] = test system: COLO 205 colon
[9] = test system: DLD-1 colon
[10] = test system: DMS 114 small cell lung
[11] = test system: DMS 273 small cell lung
[12] = test system: DU-145 prostate
[13] = test system: EKVX NSCLC
[14] = test system: HCC-2998 colon
[15] = test system: HCT-116 colon
[16] = test system: HCT-15 colon
[17] = test system: HL-60(TB) leukemia
[18] = test system: HOP-18 NSCLC
[19] = test system: HOP-62 NSCLC
[20] = test system: HOP-92 NSCLC
[21] = test system: HS 578T breast
[22] = test system: HT29 colon
[23] = test system: IGROV1 ovarian
[24] = test system: K-562 leukemia
[25] = test system: KM12 colon
[26] = test system: KM20L2 colon
[27] = test system: LOX IMVI melanoma
[28] = test system: LXFL 529 NSCLC
[29] = test system: M14 melanoma
[30] = test system: M19-MEL melanoma
[31] = test system: MALME-3M melanoma
[32] = test system: MDA-MB-231 breast
[33] = test system: MDA-MB-435
[34] = test system: MDA-N
[35] = test system: NCI-H226 lung
[36] = test system: NCI-H23 lung
[37] = test system: NCI-H460 lung
[38] = test system: NCI-H522 lung
[39] = test system: OVCAR-3 ovarian
[40] = test system: OVCAR-4 ovarian
[41] = test system: OVCAR-5 ovarian
[42] = test system: OVCAR-8 ovarian
[43] = test system: PC-3 prostate
[44] = test system: RPMI-8226 leukemia
[45] = test system: RXF 393 renal
[46] = test system: RXF-631 renal
[47] = test system: SF-268 CNS
[48] = test system: SF-295 CNS
[49] = test system: SF-539 CNS
[50] = test system: SK-MEL-2 melanoma
[51] = test system: SK-MEL-28 melanoma
[52] = test system: SK-MEL-5 melanoma
[53] = test system: SK-OV-3 ovarian
[54] = test system: SN12C renal
[55] = test system: SNB-19 CNS
[56] = test system: SNB-75 CNS
[57] = test system: SNB-78 CNS
[58] = test system: SR leukemia
[59] = test system: SW-620 colon
[60] = test system: T-47D breast
[61] = test system: TK-10 renal
[62] = test system: U251 CNS
[63] = test system: UACC-257 melanoma
[64] = test system: UACC-62 melanoma
[65] = test system: UO-31 renal
[66] = test system: XF 498 CNS
[67] = test system: MCF7 breast
[68] = test system: MOLT-4 leukemia
[69] = test system: NCI/ADR-RES ovarian
[70] = test system: P388 leukemia
[71] = test system: P388/ADR leukemia
[72] = test system: SN12K1 renal

## O=C(c1ccc(Cl)cc1)C1OC12C(=O)Nc1ccccc12 (stereo not drawn)
[1]
  TGI: 26.9 µM
[2]
  TGI: 36 µM
[3]
  TGI: 58.6 µM
[4]
  TGI: 28.5 µM
[5]
  TGI: 31.4 µM
[6]
  TGI: 20.6 µM
[7]
  TGI: 4.71 µM
[8]
  TGI: 8.53 µM
[9]
  TGI: 6.29 µM
[10]
  TGI: 26.2 µM
[11]
  TGI: 25.4 µM
[12]
  TGI: 33.8 µM
[13]
  TGI: 33.4 µM
[14]
  TGI: 34.1 µM
[15]
  TGI: 13.6 µM
[16]
  TGI: 11.2 µM
[17]
  TGI: 1.58 µM
[18]
  TGI: 27 µM
[19]
  TGI: > 73.3 µM
[20]
  TGI: 30 µM
[21]
  TGI: 44.6 µM
[22]
  TGI: 27.5 µM
[23]
  TGI: 39.1 µM
[24]
  TGI: 11.2 µM
[25]
  TGI: 32.5 µM
[26]
  TGI: 41.3 µM
[27]
  TGI: 4.67 µM
[28]
  TGI: 11.8 µM
[29]
  TGI: 19 µM
[30]
  TGI: 23.3 µM
[31]
  TGI: 18.8 µM
[32]
  TGI: 50.5 µM
[33]
  TGI: 35.5 µM
[34]
  TGI: 14.5 µM
[35]
  TGI: 40.7 µM
[36]
  TGI: 32.9 µM
[37]
  TGI: 47.1 µM
[38]
  TGI: 3.97 µM
[39]
  TGI: > 55.7 µM
[40]
  TGI: 34.1 µM
[41]
  TGI: 36.2 µM
[42]
  TGI: 36 µM
[43]
  TGI: 41 µM
[44]
  TGI: 10.2 µM
[45]
  TGI: 29.6 µM
[46]
  TGI: 34.7 µM
[47]
  TGI: 40.2 µM
[48]
  TGI: 33.7 µM
[49]
  TGI: 30.6 µM
[50]
  TGI: 22.3 µM
[51]
  TGI: 29.5 µM
[52]
  TGI: 24.6 µM
[53]
  TGI: 60.4 µM
[54]
  TGI: 19.3 µM
[55]
  TGI: 86.7 µM
[56]
  TGI: 32 µM
[57]
  TGI: 32.4 µM
[58]
  TGI: 3.22 µM
[59]
  TGI: 17.4 µM
[60]
  TGI: 47.7 µM
[61]
  TGI: 35.2 µM
[62]
  TGI: 32 µM
[63]
  TGI: 27.8 µM
[64]
  TGI: 32.3 µM
[65]
  TGI: 29.4 µM
[66]
  TGI: 25 µM

## O=C1C=CC(=O)c2c(Cl)ccc(O)c21
[2]
  TGI: > 100 µM
[3]
  TGI: > 100 µM
[6]
  TGI: 16.1 µM
[7]
  TGI: > 100 µM
[8]
  TGI: 25.8 µM
[9]
  TGI: 27.6 µM
[10]
  TGI: 33.6 µM
[11]
  TGI: 25.4 µM
[13]
  TGI: 43 µM
[14]
  TGI: > 100 µM
[15]
  TGI: 23.5 µM
[16]
  TGI: 39.1 µM
[17]
  TGI: 18.5 µM
[18]
  TGI: 33.4 µM
[19]
  TGI: > 100 µM
[20]
  TGI: 6.96 µM
[22]
  TGI: 44.9 µM
[23]
  TGI: 21 µM
[24]
  TGI: > 74 µM
[25]
  TGI: > 100 µM
[26]
  TGI: 18.5 µM
[27]
  TGI: 37.2 µM
[30]
  TGI: 30 µM
[31]
  TGI: 32.7 µM
[67]
  TGI: 31.1 µM
[68]
  TGI: 23.2 µM
[35]
  TGI: > 100 µM
[36]
  TGI: 17.1 µM
[37]
  TGI: > 100 µM
[38]
  TGI: 26.8 µM
[69]
  TGI: 42.1 µM
[39]
  TGI: 29.1 µM
[40]
  TGI: 32.5 µM
[41]
  TGI: > 89.3 µM
[42]
  TGI: 50.2 µM
[70]
  TGI: 3.84 µM
[71]
  TGI: 1.96 µM
[44]
  TGI: 23.4 µM
[45]
  TGI: 29.7 µM
[47]
  TGI: 33.4 µM
[48]
  TGI: > 57 µM
[49]
  TGI: > 56.8 µM
[50]
  TGI: 97.5 µM
[51]
  TGI: 33 µM
[52]
  TGI: 33.1 µM
[53]
  TGI: > 100 µM
[54]
  TGI: 39 µM
[72]
  TGI: > 55.2 µM
[55]
  TGI: > 100 µM
[56]
  TGI: > 63.4 µM
[57]
  TGI: 41.2 µM
[59]
  TGI: 31.4 µM
[62]
  TGI: > 100 µM
[63]
  TGI: 29.8 µM
[64]
  TGI: 30.9 µM
[65]
  TGI: > 100 µM
[66]
  TGI: 32.7 µM
